Source: patent US6369103B1, “Method for preventing or reducing risk of onset of cardiovascular events employing an HMG CoA reductase inhibitor” (Bristol-Myers Squibb Company, priority 1994, dated 2002)
Like-named read-outs stand apart in the source and are kept apart here.

How the values were obtained:
[1] = system: patients with primary hypercholesterolemia and ≧2 additional risk factors for coronary artery disease; settings: for Sudden cardiac death, number / Myocardial infarction (fatal and nonfatal), number: n = 530; for Myocardial infarction (fatal and nonfatal), number: p = 0.031 vs placebo
Experimental: This example describes a large multinational study, “Effects of Pravastatin in Patients with Serum Total Cholesterol Levels from 5.2 to 7.8 mmol/liter (200 to 300 mg/dl) Plus Two Additional Atherosclerotic Risk Factors,” The Pravastatin Multinational Study Group for Cardiac Risk Patients, reported in Am. J. Cardiology Vol. 72, Nov. 1, 1993, 1031-1036. The study was designed to examine the efficacy and safety of pravastatin, together with diet modification and advice on smoking, in patients with primary hypercholesterolemia and ≧2 additional risk factors for coronary artery disease (CAD).
(§1) The efficacy and long-term safety of pravastatin in hypercholesterolemic patients were investigated in this multicenter, randomized, double-blind placebo-controlled trial. After dietary stabilization and recommendations for lifestyle modification during a 6-week placebo lead-in period, patients were randomized to receive pravastatin 20 mg or placebo at bedtime. After 13 weeks, patients who responded (defined as a decrease in total cholesterol level by >15% from baseline or to <5.2 mmol/liter [200 mg/dl]) to treatment continued on the same study medication for 13 additional weeks. […] Compliance with dietary instructions and other lifestyle counseling were periodically assessed. After completing the initial 26-week period, patients were given the option to continue in an additional 26-week double-blind phase and, following the first 52 weeks, a final 26-week period that was open-label for pravastatin in patients originally assigned to that treatment group. Additional lipid-lowering medications, except other 3-hydroxy-3-methylglutaryl coenzyme A reductase inhibitors and fibrates, could be added to patients not meeting treatment goals at the end of the first 26 weeks. Fibrates could be added in the open-label period of the study in patients originally assigned placebo.
The protocol was approved by each local ethics committee, and patients gave informed consent before randomization. The study population was to be limited to men and postmenopausal or surgically sterile women 20 to 69 years old. At entry, patients were to have a serum total cholesterol concentration between 5.2 and 7.8 mmol/liter (200 and 300 mg/dl) despite dietary intervention as well as ≧2 additional risk factors for CAD as defined in the protocol (male gender, systemic hypertension, cigarette smoking, family history of CAD, prior myocardial infarction, or history of angina pectoris). Exclusion criteria included (1) a history of homozygous familial hypercholesterolemia; (2) types I, III, IV or V hyperlipoproteinemia; (3) significant metabolic, renal, hepatic or endocrine disease; (4) history of drug abuse; or (5) obesity (>40% above ideal body weight). Patients were also excluded if, within 8 weeks of randomization, they were taking cortico-steroids immunosuppressive drugs, investigational drugs, androgens, or estrogens and progestins for indications other than replacement therapy.
(§2) After ≧4 weeks of dietary stabilization, 2 qualifying blood samples for the lipid profile were drawn approximately 1 week apart after an overnight fast of ≧10 hours. Seated systolic and diastolic blood pressures were recorded at 2 weeks and 1 week before randomization; other risk factors were assessed 1 week before randomization. Baseline lipid and laboratory safety tests, blood pressure and body weight measurements, and an ophthalmologic evaluation (including visual acuity and determination of lenticular opacities) were performed at randomizations. The presence of concurrent disease and the use of concomitant medications were also recorded. When patients returned for clinic visits at weeks 6, 13 and 26, body weight and blood pressure were measured, morning samples for lipid profiles and laboratory safety tests were drawn, and clinical adverse events and concomitant medications were recorded. Drug compliance (by tablet count) was assessed and the ophthalmologic evaluation was repeated at weeks 13 and 26.

[2] = system: patients with primary hypercholesterolemia and ≧2 additional risk factors for coronary artery disease; settings: Pearson et al. commentary, cited from earlier work
[3] = system: patients with primary hypercholesterolemia and ≧2 additional risk factors for coronary artery disease; assay: Multinational randomized double-blind placebo-controlled trial: effects on plasma lipids; format: in vivo, human; settings: for LDL cholesterol, Mean ± SEM: calculated (Friedewald)
Experimental: J. Cardiology Vol. 72, Nov. 1, 1993, 1031-1036. […] Lipid analyses were performed at local laboratories and a central laboratory. […] The LDL cholesterol concentration was calculated using the Friedewald equation converted to mmol/liter: […] To assess the comparability of treatment groups, baseline values and demographic characteristics for all randomized patients were summarized for each treatment group by descriptive statistics. The primary efficacy variables were the serum lipids analyzed at local laboratories at weeks 0, 6, 13 and 26. All values were transformed to natural logarithms for the analysis. Geometric means were used to summarize lipid values by treatment group at each visit. Treatment groups were compared by analysis of covariance of change from baseline in transformed values with baseline as a covariate.

[4] = system: patients with primary hypercholesterolemia and ≧2 additional risk factors for coronary artery disease; settings: in vivo
Experimental: as §1, §2
Laboratory safety tests were performed by local laboratories and consisted of hematology (hemoglobin, red blood cell count, hematocrit, platelet count, and white blood cell count and differential) and blood chemistries (urea, creatinine, uric acid, calcium, total bilirubin, alkaline phosphatase, aspartate aminotransferase, alanine aminotransferase, γ-glutamyl aminotransferase, total protein, albumin and creatine kinase).
The incidence of adverse events in each treatment group was summarized by body system and individual events. In addition, events predefined by the protocol to be serious, e.g., fatal events or events leading to or prolonging hospitalization, were tabulated. Hematology and biochemistry variables were summarized and analyzed by geometric means and analysis of covariance of change from baseline. Ophthalmologic results were summarized in terms of the number of lenticular opacities present at baseline and at weeks 13 and 26. […] Differences in the incidence of adverse events were typically analyzed by the chi-square test with the Fisher's exact test used for rare events. Results were reported as statistically significant if a 2-sided p value ≦0.05 was attained.

[5] = first 26 weeks, listed as Pravastatin
[6] = baseline to Week 26, p<0.001 vs placebo
[7] = end of initial 26 weeks, 20 to 40 mg once daily (average dose 26.5 mg)
[8] = week 13, 20 mg at bedtime, p<0.001 compared with placebo

For `CC[C@H](C)C(=O)O[C@H]1C[C@H](O)C=C2C=C[C@H](C)[C@H](CC[C@@H](O)C[C@@H](O)CC(=O)O)[C@H]21` [pravastatin], the “changes in visual acuity (without correction) and incidence of new ocular opacities” value ([1]; both, human, in vivo) was “limited and similar in the 2 treatment groups”, the “Acute congestive heart failure, number” value ([1]; both, human, in vivo, 26 weeks) was 1 and the “Central nervous system serious adverse events, Subtotal” value ([1]; both, human, in vivo, 26 weeks) was 0. For the same compound, the “Cerebral infarction, number” value ([1]; both, human, in vivo, 26 weeks) was 0, the “Other serious adverse events, Subtotal” value ([1]; both, human, in vivo, 26 weeks) was 4 and the “Other serious adverse events: Diabetes, number” value ([1]; both, human, in vivo, 26 weeks) was 1. For the same compound, the “Other serious adverse events: Gastrointestinal, number” value ([1]; both, human, in vivo, 26 weeks) was 2, the “Other serious adverse events: Peripheral arterial disease, number” value ([1]; both, human, in vivo, 26 weeks) was 1 and the “Other serious adverse events: Pulmonary, number” value ([1]; both, human, in vivo, 26 weeks) was 0. For the same compound, the “Serious cardiovascular adverse events” value ([1]; both, human, in vivo, 26 weeks) was 0.2%, the “Serious cardiovascular adverse events (Subtotal), number” value ([1]; both, human, in vivo, 26 weeks) was 1 and the “Surgery serious adverse events, Subtotal” value ([1]; both, human, in vivo, 26 weeks) was 1. For the same compound, the “Surgery: Abdominal (hernia), number” value ([1]; both, human, in vivo, 26 weeks) was 0, the “Surgery: Breast, number” value ([1]; both, human, in vivo, 26 weeks) was 0 and the “Surgery: Coronary artery bypass graft, number” value ([1]; both, human, in vivo, 26 weeks) was 0. For the same compound, the “Surgery: Joint (knee), number” value ([1]; both, human, in vivo, 26 weeks) was 1, the “Syncope, number” value ([1]; both, human, in vivo, 26 weeks) was 0 and the “Total of all serious adverse events, number of events” value ([1]; both, human, in vivo, 26 weeks) was 6. For the same compound, the “Transient ischemic attack, number” value ([1]; both, human, in vivo, 26 weeks) was 0, the “Unstable angina leading to hospitalization, number” value ([1]; both, human, in vivo, 26 weeks) was 0 and the “cardiovascular clinical adverse events” value ([1]; both, human, in vivo, 26 weeks) was 2.8%. For the same compound, the “cardiovascular clinical adverse events, number” value ([1]; both, human, in vivo, 26 weeks) was 15, the “patients reporting adverse events” value ([1]; both, human, in vivo, 26 weeks) was 22.6% and the “patients reporting adverse events, number” value ([1]; both, human, in vivo, 26 weeks) was 120. For the same compound, the “patients with serious adverse events” value ([1]; both, human, in vivo, 26 weeks) was 0.9%, the “patients with serious adverse events, number” value ([1]; both, human, in vivo, 26 weeks) was 5 and the “patients withdrawn from the study because of an adverse event” value ([1]; both, human, in vivo, 26 weeks) was 4.7%. For the same compound, the “adverse events thought to be related to pravastatin administration, number” value ([1]; both, human, in vivo, 52 weeks) was 1, the “cases of unstable angina, number” value ([1]; both, human, in vivo, 52 weeks) was 1 and the “patients reporting clinical adverse events” value ([1]; both, human, in vivo, 52 weeks) was 18.5%. For the same compound, the “patients reporting clinical adverse events, number” value ([1]; both, human, in vivo, 52 weeks) was 55, the “patients who withdrew because of adverse events” value ([1]; both, human, in vivo, 52 weeks) was 1.7% and the “episodes of unstable angina, number” value ([1]; both, human, in vivo, 78 weeks) was 1. For the same compound, the “myocardial infarctions, number” value ([1]; both, human, in vivo, 78 weeks) was 1, the “Sudden cardiac death, number” value ([1]; first 26 weeks) was “none” and the “Sudden cardiac death, number” value [1, 5] was 0. The “Myocardial infarction (fatal and nonfatal), number” value ([1]; first 26 weeks) was “no patient and none”, the “Myocardial infarction (fatal and nonfatal), number” value [1, 5] was 0 and the deaths ([1]; first 26 weeks, three placebo-treated patients died) was “no pravastatin-treated patient died”. For the same compound, the “Total of all serious adverse events, number of events” value ([1]; human, in vivo) was “Six”, the “patients who sustained myocardial infarctions, number” value ([1]; human, in vivo) was “One” and the “patients who withdrew because of adverse events, number” value ([1]; human, in vivo) was “Five”. For the same compound, the “patients withdrawn because of angioedema thought to be possibly related to drug therapy, number” value ([1]; human, in vivo) was “One”, the “patients withdrawn because of creatine kinase elevation or musculoskeletal events, number” value ([1]; human, in vivo) was “Three” and the “patients withdrawn from the study because of an adverse event, number” value ([1]; human, in vivo) was “Twenty-five”. For the same compound, the serious cerebrovascular events ([1]; human, in vivo) was “none”, the “total incidence of clinical adverse events, pravastatin vs placebo” value ([1]; human, in vivo) was “no differences” and the deaths ([1]; long-term portion of the trial) was “no deaths”. For the same compound, the “medical and surgical events in the coronary and cerebrovascular beds, number” value ([2]; first 26 weeks, 21 in the placebo group) was 1, the “cases of myocardial infarction or unstable angina, number” value ([2]; over the 78 weeks of the study, 16 in the placebo group) was 2 and the “LDL cholesterol, Mean ± SEM” value ([3]; Baseline, n=499) was 4.69 ± 1.05 mmol/L. For the same compound, the “HDL cholesterol, Mean ± SEM” value ([3]; Baseline, n=500) was 1.14 ± 0.35 mmol/L, the “Triglycerides, Mean ± SEM” value ([3]; Baseline, n=520) was 1.77 ± 0.82 mmol/L and the “Total cholesterol, Mean ± SEM” value ([3]; Baseline, n=521) was 6.81 ± 0.78 mmol/L. The “HDL cholesterol, Mean ± SEM” value ([3]; Week 26, n=459) was 1.23 ± 0.37 mmol/L, the “LDL cholesterol, Mean ± SEM” value ([3]; Week 26, n=459) was 3.47 ± 0.74 mmol/L and the “Total cholesterol, Mean ± SEM” value ([3]; Week 26, n=483) was 5.55 ± 0.82 mmol/L. For the same compound, the “Triglycerides, Mean ± SEM” value ([3]; Week 26, n=483) was 1.56 ± 0.74 mmol/L, the “LDL cholesterol, % Change” value [3, 6] was −26.01% and the “Total cholesterol, % Change” value [3, 6] was −18.50%. For the same compound, the “Triglycerides, % Change” value [3, 6] was −11.86%, the “HDL cholesterol, % Change” value ([3]; baseline to Week 26, p<0.005 vs placebo) was 7.90% and the “increase in HDL cholesterol concentrations” value [3, 7] was 8%. The “reduction in LDL cholesterol” value [3, 7] was 26%, the “reduction in total cholesterol” value [3, 7] was 19% and the reduction in triglycerides [3, 7] was 12%. For the same compound, the “elevation in HDL cholesterol” value [3, 8] was 7%, the “reduction in LDL cholesterol” value [3, 8] was 26% and the “reduction in total cholesterol” value [3, 8] was 19%. For the same compound, the reduction in triglycerides [3, 8] was 12%, the “patients who achieved the target cholesterol goal” value ([3]; week 13, goal: total cholesterol decrease >15% from baseline or to <5.2 mmol/liter) was 66% and the “number of patients who achieved the target cholesterol goal” value ([3]; week 13, of 491 patients) was 326. For the same compound, the “patients who attained an LDL cholesterol concentration of ≦3.4 mmol/liter (130 mg/dl)” value ([3]; week 26) was 47%, the “patients with elevations of creatine kinase values to >4 times pretreatment values” ([4]; both, human) was 2.6% and the “patients with elevations of creatine kinase values to >4 times pretreatment values, number” value ([4]; both, human) was 14. For the same compound, the “patients with transient, asymptomatic elevations of hepatic transaminases to >3 times the upper limit of normal” value ([4]; both, human) was 1.1%, the “patients with transient, asymptomatic elevations of hepatic transaminases to >3 times the upper limit of normal, number” value ([4]; both, human) was 6 and the “magnitude of the increases in alanine aminotransferase, aspartate aminotransferase and creatine kinase” value [4] was 3-12%. For the same compound, the “mean level of alanine aminotransferase” value [4] was 16.02 U/liter, the “mean level of aspartate aminotransferase” value [4] was 17.24 U/liter and the “mean level of creatine kinase” value [4] was 70.62 U/liter. The “syndrome of drug-induced myopathy (myalgia with creatine kinase >10 times upper limits of normal)” value [4] was “not observed in any patient”.
